From patent US7759334B2, “Soluble forms of amoxicillin and treatment of animals” (Pharmaceutical Solutions, Inc., priority 1999, dated 2010)

Tests used:
[1] = system: STREP Suis Type 2; experiment: Treatment of streptococcus Suis in nursery pigs; type: in vivo; conditions: 300 pigs, 3 mg/lb for 7 days from 35 days of age
Experimental: Treatment of streptococcus Suis—a group of 600 pigs was divided into 2 groups of 300. Each group was side by side in a 600 animal nursery room. Group 1 (300) was treated with 3 mg/lb of amoxicillin at 35 days of age for a period of 7 days. Group 2 (300) was treated with a placebo—citric acid/nutrisweet/strawberry flavor at 35 days of age for a period of 7 days. […] Death loss ranged from 3 to 10 percent with poor treatment results.

[2] = system: Hermophilus Pawasuis; experiment: Treatment for Hermophilus Pawasuis in finishing gilts; type: in vivo; conditions: 500 gilts, 3 mg/# via water
Excerpt: Treatment for Hermophilus Pawasuis in finishing Gilts—wt. 250#. • Marked Reduction in death loss following 5 day coarse of therapy.

[3] = cited from earlier work
[4] = system: Enterococci; conditions: cited from earlier work

| SMILES | Chronic cells @ 50 [1] | Morbidity Number [1] | Mortality Number [1] | Morbidity 8-142 [2] | Mortality In 14 days [2] | Mortality result in 7 days [2] | Morbidity 0-7 ([2]; days 0-7) | Peak plasma concentration relative to ampicillin ([3]; oral administration of the same doses) | Time at which peak plasma concentrations are reached ([3]; oral administration) [h] | Peak concentration in plasma (average) ([3]; oral, 250 mg administered) | IVIIC for ampicillin averages [4] [mg/mL] |
| --- | --- | --- | --- | --- | --- | --- | --- | --- | --- | --- | --- |
| CC1(C)S[C@@H]2[C@H](NC(=O)[C@H](N)c3ccc(O)cc3)C(=O)N2[C@H]1C(=O)O [amoxicillin] | 1 | 2 | 0 | 0 | 0 | 0 | 2 | two to two and one-half times greater | 2 | about 4 μg/ml |  |
| CC1(C)S[C@@H]2[C@H](NC(=O)[C@H](N)c3ccccc3)C(=O)N2[C@H]1C(=O)O [ampicillin] |  |  |  |  |  |  |  |  |  |  | 1.5 |
